pIC50: −log10 of the molar value. A value given as a limit tells only on which side of the number the result lay.

The species named for assay [1] is Homo sapiens. As to the kind of experiment: tissue or blood.
Description: In vitro assay for PGE-2 production as a function of COX-2 inhibition in whole human blood cultured with lipopolysaccharide (LPS)
The species named for assay [2] is Homo sapiens. As to the kind of experiment: tissue or blood. The source holds these as a separate data set.
Description: Analysis of TXB2 as a function of COX-1 activity in heparinized human whole blood.
Assay [3] has as its target Prostaglandin G/H synthase 1 (Homo sapiens, UniProt P23219).
Description: In Vitro activity of compound against human recombinant Prostaglandin G/H synthase 1

Sequence of Prostaglandin G/H synthase 1 (P23219 whole entry): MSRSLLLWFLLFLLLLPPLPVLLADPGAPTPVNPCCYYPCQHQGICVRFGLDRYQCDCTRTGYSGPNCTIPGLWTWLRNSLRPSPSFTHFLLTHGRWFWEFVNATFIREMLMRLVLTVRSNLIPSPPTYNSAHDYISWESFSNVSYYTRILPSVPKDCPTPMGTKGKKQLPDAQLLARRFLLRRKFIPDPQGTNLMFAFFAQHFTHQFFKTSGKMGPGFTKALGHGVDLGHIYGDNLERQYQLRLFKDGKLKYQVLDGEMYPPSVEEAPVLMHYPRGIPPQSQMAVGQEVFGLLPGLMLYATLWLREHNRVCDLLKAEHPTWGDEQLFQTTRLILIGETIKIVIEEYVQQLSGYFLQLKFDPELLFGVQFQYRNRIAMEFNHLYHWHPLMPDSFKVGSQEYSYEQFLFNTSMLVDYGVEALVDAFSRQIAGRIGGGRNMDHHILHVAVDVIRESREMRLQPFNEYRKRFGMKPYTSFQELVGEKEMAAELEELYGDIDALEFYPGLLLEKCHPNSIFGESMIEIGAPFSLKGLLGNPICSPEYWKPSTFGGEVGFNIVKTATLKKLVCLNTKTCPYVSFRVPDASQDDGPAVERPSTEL

The term pIC50 denotes −log10 of the IC50, conventionally taken in molar units. As to `Cc1onc(-c2ccccc2)c1-c1ccc(S(N)(=O)=O)cc1` [VALDECOXIB], the figures for the pIC50 in the assay listed under Homo sapiens [1] and in the assay filed under Homo sapiens [2] were 6.05 and 4.60, respectively.
Take `Cc1ccc(-c2cc(C(F)(F)F)nn2-c2ccc(S(N)(=O)=O)cc2)cc1` [CELECOXIB]: the figures for the negative-log IC50 (pIC50) in the assay filed under Homo sapiens [1] and in the assay listed under Homo sapiens [2] were 6.79 and 5.18, respectively.
In the case of `NS(=O)(=O)c1ccc(-c2c(-c3ccccc3)noc2CO)cc1` [HYDROXYLATED DERIVATIVE], the pIC50 was 2.95 in assay [3], 6.48 in the assay listed under Homo sapiens [1] and under 4.30 in the assay filed under Homo sapiens [2].

Source of the values: ChEMBL document CHEMBL1132956 (J Med Chem, 2000).
